Marks after values point to notes of the source that are not given here. Blank lines part the entries; values can stand above or below the compound they belong to.
Experiments:
[1] = Encapsulation of hydrophobic compounds into milk fat globules (loading capacity, encapsulation efficiency); type: physicochemical, bovine; settings: for maximal loading capacity (LC): maximal value over 50-2500 μM; for encapsulation efficiency (EE %), maximal/overall value: over tested concentrations
Experimental: Raw milk was procured from a local market and stored at 4° C. Milk was used for up to 4 days post purchase. MFGs were separated from raw milk using centrifugal separation following a modified version of the method by Gallier et al. (2010) (12). First, raw milk was diluted with Milli-Q water at 9:1 water to milk, and the solution was centrifuged at 3,000×g for 5 min using a fixed angle centrifuge rotor. Cream was then skimmed off the sides of the centrifuged tubes after discarding the aqueous phase. In order to remove more of the milk serum components, cream was reconstituted in water to reach 4% w/v, and subjected to another step of centrifugation at 3,000×g for 5 min Cream was collected as detailed prior, then reconstituted to 20% w/v in Milli-Q water. All separation steps were completed at room temperature.
Encapsulation of test compounds in MFGs was accomplished by mixing ethanolic stock solution of a compound with 20% w/v cream suspended in water. The mixture was gently inverted several times to mix, then allowed in incubate in the dark.
To test the effect of incubation temperature on the partitioning and encapsulation yield and efficiency, RA was added at 250 μM concentration and was allowed to incubate with MFGs for 30 min at 4, 22, and 40° C.
To quantify the amount of compound encapsulated in MFGs, cream was separated from ethanol-containing aqueous phase via centrifugal separation at 3,000 x g for 5 min. Cream was skimmed and added to methanol at 50 mg/mL and vortexed vigorously for 1 min, then centrifuged at 16,000×g for 10 min. Top layer of methanol was collected and absorbance was measured at appropriate wavelength for each compound. An absorbance blank was prepared following the same encapsulation and separation steps in the absence of compound. λmax in methanol (nm) for each compound is reported in Table 1.
Cream (20% w/v in Milli-Q water) that was separated following the steps in Example 2 was further separated via centrifugation at 3,000×g for 5 min. Fat content in cream was measured using a modified Folch method (13). An additional washing step was incorporated where the chloroform/water interface was washed with 1:1 water/methanol solution.

[2] = as above; type: physicochemical, bovine; settings: 250 μM, 1% v/v ethanol, room temperature
[3] = Measured or estimated, from references; cited from earlier work
[4] = Water/octanol partitioning coefficient, Log P
Description: One such molecular property that is used to predict partitioning potential is the octanol—water partition coefficient; Log P, which is the logarithm of the ratio of the solute concentration in the octanol phase to the solute concentration in the water phase, at a defined temperature.

[5] = 150 μM added compound, 10% v/v ethanol, 30 min, room temperature
[6] = 200 μM added compound, 10% v/v ethanol, 30 min, room temperature
[7] = 250 μM added compound, 10% v/v ethanol, 30 min, room temperature
[8] = 500 μM added compound, 10% v/v ethanol, 30 min, room temperature
[9] = 1000 μM added compound, 10% v/v ethanol, 30 min, room temperature
[10] = 1500 μM added compound, 10% v/v ethanol, 30 min, room temperature
[11] = 2000 μM added compound, 10% v/v ethanol, 30 min, room temperature
[12] = 2500 μM added compound, 10% v/v ethanol, 30 min, room temperature
[13] = 1% v/v ethanol, 250 μM, 30 min, room temperature
[14] = 2% v/v ethanol, 250 μM, 30 min, room temperature
[15] = 4% v/v ethanol, 250 μM, 30 min, room temperature
[16] = 4 °C, 30 min, 250 μM, 1% v/v ethanol
[17] = 6% v/v ethanol, 250 μM, 30 min, room temperature
[18] = 8% v/v ethanol, 250 μM, 30 min, room temperature
[19] = 10% v/v ethanol, 250 μM, 30 min, room temperature
[20] = 22 °C, 30 min, 250 μM, 1% v/v ethanol
[21] = 40 °C, 30 min, 250 μM, 1% v/v ethanol
[22] = 40 °C, 30 min, 250 μM, 1% v/v ethanol, listed as RA
[23] = 30 min incubation, 250 μM, 1% v/v ethanol, room temperature
[24] = 10% v/v ethanol, 30 min, room temperature

- % Encapsulation efficiency ([1]; 50 μM added compound, 10% v/v ethanol, 30 min, room temperature): 107.46 ± 6.29%
- % Encapsulation efficiency ([1]; 100 μM added compound, 10% v/v ethanol, 30 min, room temperature): 100.56 ± 3.83%
- % Encapsulation efficiency [1, 5]: 111.73 ± 6.32%
- % Encapsulation efficiency [1, 6]: 110.33 ± 3.15%
- % Encapsulation efficiency [1, 7]: 105.92 ± 4.41%
- % Encapsulation efficiency [1, 8]: 76.40 ± 9.65 %
- % Encapsulation efficiency [1, 9]: 86.09 ± 12.48 %
- % Encapsulation efficiency [1, 10]: 82.14 ± 15.94 %
- % Encapsulation efficiency [1, 11]: 76.89 ± 9.88 %
- % Encapsulation efficiency [1, 12]: 75.45 ± 5.19 %
- % Encapsulation efficiency [1, 13]: 77.86 ± 5.54^ %
- Loading capacity ([1]; 1% v/v ethanol, 250 μM, 30 min, room temperature, listed as RA): 7.6 μg retinyl acetate/g of milk f
- EE % range with increased ethanol concentration ([1]; 1 to 10% v/v ethanol, 250 μM, 30 min): 78-107%
- % Encapsulation efficiency [1, 14]: 83.40 ± 11.73%
- % Encapsulation efficiency [1, 15]: 101.24 ± 4.76 %
- % Encapsulation efficiency [1, 16]: 53.52 ± 3.97 ^a %
- % Encapsulation efficiency [1, 17]: 106.90 ± 10.93 %
- % Encapsulation efficiency [1, 18]: 107.65 ± 6.42 %
- % Encapsulation efficiency [1, 19]: 107.53 ± 5.15 %
- Loading capacity ([1]; 10% v/v ethanol, 250 μM, 30 min, room temperature, listed as RA): 10.57 μg retinyl acetate/g of milk f
- % Encapsulation efficiency [1, 20]: 72.07 ± 3.85 ^b %
- % Encapsulation efficiency [1, 21]: 124.42 ± 6.52 ^c %
- % Encapsulation efficiency [1, 22]: 124.42%
- Loading capacity [1, 22]: 12.23 μg retinyl acetate/g of milk f
- % Encapsulation efficiency ([1]; 10 min incubation, 250 μM, 1% v/v ethanol, room temperature): 52.02 ± 4.66^ %
- % Encapsulation efficiency ([1]; 20 min incubation, 250 μM, 1% v/v ethanol, room temperature): 65.66 ± 6.40 %
- % Encapsulation efficiency [1, 23]: 76.11 ± 0.89 %
- % Encapsulation efficiency ([1]; 40 min incubation, 250 μM, 1% v/v ethanol, room temperature): 78.98 ± 5.13 %
- % Encapsulation efficiency ([1]; 60 min incubation, 250 μM, 1% v/v ethanol, room temperature): 94.38 ± 2.25 *†‡¥ %
- maximal loading capacity (LC) [1, 24]: 74.15 μg per gram of milk fat
- encapsulation efficiency (EE %), maximal/overall value ([1]; 10% v/v ethanol, 30 min): ≥ 100%
- % Encapsulation efficiency ([2]; 50 min incubation): 89.38 ± 4.66 %
- Loading capacity ([2]; 60 min incubation, listed as RA): 9.28 μg retinyl acetate/g of milk f
- logP [4]: ~8
SMILES: CC(=O)OC/C=C(C)/C=C/C=C(C)/C=C/C1=C(C)CCCC1(C)C [Retinyl acetate]
- Loading capacity [1, 13]: 7.65 ± 0.54^ μg retinyl acetate/g of milk f
- Loading capacity [1, 14]: 8.20 ± 1.15^ μg retinyl acetate/g of milk f
- Loading capacity [1, 15]: 9.95 ± 0.47 μg retinyl acetate/g of milk f
- Loading capacity [1, 16]: 5.26 ± 0.39 ^a μg retinyl acetate/g of milk f
- Loading capacity [1, 17]: 10.51 ± 1.07 μg retinyl acetate/g of milk f
- Loading capacity [1, 18]: 10.58 ± 0.63 μg retinyl acetate/g of milk f
- Loading capacity [1, 19]: 10.57 ± 0.51 μg retinyl acetate/g of milk f
- Loading capacity [1, 20]: 7.08 ± 0.38 ^b μg retinyl acetate/g of milk f
- Loading capacity [1, 21]: 12.23 ± 0.64 ^c μg retinyl acetate/g of milk f
- Loading capacity [1, 23]: 7.48 ± 0.09 μg retinyl acetate/g of milk f
- Loading capacity ([1]; 50 min incubation, 250 μM, 1% v/v ethanol, room temperature): 8.78 ± 0.46 μg retinyl acetate/g of milk f
- Loading capacity ([2]; 10 min incubation): 5.11 ± 0.46^ μg retinyl acetate/g of milk f
- Loading capacity ([2]; 20 min incubation): 6.45 ± 0.63 μg retinyl acetate/g of milk f
- Loading capacity ([2]; 40 min incubation): 7.76 ± 0.50 μg retinyl acetate/g of milk f
- Loading capacity ([2]; 60 min incubation): 9.28 ± 0.22 *†‡¥ μg retinyl acetate/g of milk f
- Water/octanol partitioning coefficient, Log P [3]: 6.3-9.81 ^(21, 23)

SMILES: C=CCc1ccc(O)c(OC)c1 [Eugenol]
- % Encapsulation efficiency [1, 5]: 98.05 ± 4.10%
- % Encapsulation efficiency [1, 6]: 95.43 ± 7.46%
- % Encapsulation efficiency [1, 7]: 86.64 ± 7.23%
- % Encapsulation efficiency [1, 8]: 85.14 ± 6.33%
- % Encapsulation efficiency [1, 9]: 80.94 ± 2.42 %
- % Encapsulation efficiency [1, 10]: 82.09 ± 134 %
- % Encapsulation efficiency [1, 11]: 80.86 ± 2.58 %
- % Encapsulation efficiency [1, 12]: 80.71 ± 3.39 %
- maximal loading capacity (LC) [1, 24]: 39.65 μg per gram of milk fat
- encapsulation efficiency (EE %), maximal/overall value ([1]; 10% v/v ethanol, 30 min): approximately 98%
- logP (physchem): ~2.6
- Water/octanol partitioning coefficient, Log P [3]: 2.61-2.66 ^(18)
